Where two headings read alike, the source gives them in different places. Marks after values point to notes of the source that are not given here.
Experiments:
[1] = Compound I Form I solubility in various liquid vehicles; format: physicochemical
[2] = Compound I chemical stability in various liquid vehicles at 40° C.; format: physicochemical; settings: 40° C. vs −20° C. control
Excerpt: Stability of 3-[(3aR,4R,5S,7aS)-5-{(1R)-1-[3,5-bis(Trifluoromethyl)phenyl]ethoxy}-4-(4-fluorophenyl)-octahydro-2H-isoindol-2-yl]cyclopent-2-en-1-one, (Compound I) in Various Liquid Vehicles

[3] = Pharmacokinetics after oral administration of liquid filled capsules; format: in vivo, male Beagle dogs; settings: male, Beagle, dog, plasma, 40 mg, 40 mg oral, Mean ± SD; for AUC(0-t): read-out: AUC0-24
[4] = liquid filled capsules with Imwitor742/Tween80 (75:25), male Beagle dogs
[5] = liquid filled capsules with Imwitor742:Tween80 (50:50), male Beagle dogs
[6] = liquid filled capsules with pure Imwitor742, male Beagle dogs

SMILES: C[C@@H](O[C@H]1CC[C@@H]2CN(C3=CC(=O)CC3)C[C@H]2[C@@H]1c1ccc(F)cc1)c1cc(C(F)(F)F)cc(C(F)(F)F)c1 [Compound I, 3-[(3aR,4R,5S,7aS)-5-{(1R)-1-[3,5-bis(Trifluoromethyl)phenyl]ethoxy}-4-(4-fluorophenyl)-octahydro-2H-isoindol-2-yl]cyclopent-2-en-1-one]
- Solubility ([1]; Form I, 0.5% Methylcellulose, Room Temp): 0.001 mg/g of formulation
- Solubility ([1]; Form I, 1:1 Imwitor:Tween + 1 eq HCl, Room Temp): >57 mg/g of formulation
- Solubility ([1]; Form I, Acconon MC-8, 35° C.): <1 mg/g of formulation
- Solubility ([1]; Form I, Capmul MCM C-8, 35° C.): 53 mg/g of formulation
- Solubility ([1]; Form I, Capmul PG-8, 35° C.): 50 mg/g of formulation
- Solubility ([1]; Form I, Capmul PG-12, 35° C.): 25 mg/g of formulation
- Solubility ([1]; Form I, Capryol PGMC, 30° C.): 29 mg/g of formulation
- Solubility ([1]; Form I, Capryol PGMC, Room Temp): >6 mg/g of formulation
- Solubility ([1]; Form I, Captex 200P, 35° C.): 2 mg/g of formulation
- Solubility ([1]; Form I, Corn Oil, Room Temp): <0.1 mg/g of formulation
- Solubility ([1]; Form I, Cremophor EL, Room Temp): 2 mg/g of formulation
- Solubility ([1]; Form I, Ethanol, Room Temp): 58 mg/g of formulation
- Solubility ([1]; Form I, Gelucire 44/14, 65° C.): 4 mg/g of formulation
- Solubility ([1]; Form I, Glycerin, Room Temp): <0.5 mg/g of formulation
- Solubility ([1]; Form I, Imwitor 308, 35° C.): 58 mg/g of formulation
- Solubility ([1]; Form I, Imwitor 642, 35° C.): 78 mg/g of formulation
- Solubility ([1]; Form I, Imwitor 742, 30° C.): 43 mg/g of formulation
- Solubility ([1]; Form I, Imwitor 742, 35° C.): 46 mg/g of formulation
- Solubility ([1]; Form I, Imwitor 742, Room Temp): >6 mg/g of formulation
- Solubility ([1]; Form I, Imwitor 988, 35° C.): 54 mg/g of formulation
- Solubility ([1]; Form I, Labrafil M1944CS, 35° C.): 4 mg/g of formulation
- Solubility ([1]; Form I, Labrafil M2125CS, 35° C.): 4 mg/g of formulation
- Solubility ([1]; Form I, Labrafil M2125CS, Room Temp): 5 mg/g of formulation
- Solubility ([1]; Form I, Labrasol, 35° C.): 11 mg/g of formulation
- Solubility ([1]; Form I, Labrasol, Room Temp): 7 mg/g of formulation
- Solubility ([1]; Form I, Miglyol 812, Room Temp): 0.4 mg/g of formulation
- Solubility ([1]; Form I, Olive Oil, Room Temp): <0.1 mg/g of formulation
- Solubility ([1]; Form I, PEG 400:water (92:8) + 1 eq HCl, Room Temp): 24 mg/g of formulation
- Solubility ([1]; Form I, PEG 400:water (92:8) + 1 eq NaOH, Room Temp): 1.3 mg/g of formulation
- Solubility ([1]; Form I, PEG 400:water (92:8), Room Temp): 1.0 mg/g of formulation
- Solubility ([1]; Form I, PEG 400, Room Temp): 2 mg/g of formulation
- Solubility ([1]; Form I, Peceol, 35° C.): 19 mg/g of formulation
- Solubility ([1]; Form I, Propylene Glycol, 35° C.): 8 mg/g of formulation
- Solubility ([1]; Form I, Propylene Glycol, Room Temp): 5 mg/g of formulation
- Solubility ([1]; Form I, Soybean Oil, Room Temp): <0.1 mg/g of formulation
- Solubility ([1]; Form I, Tween 20, Room Temp): 2 mg/g of formulation
- Solubility ([1]; Form I, Tween 80, Room Temp): 1 mg/g of formulation
- Solubility ([1]; Form I, Water, Room Temp): <0.0002 mg/g of formulation
- Solubility ([1]; Form I, pH 1.3 aqueous, Room Temp): 0.001 mg/g of formulation
- Solubility ([1]; Form I, pH 2.2 to 10.1 aqueous, Room Temp): <0.0002 mg/g of formulation
- Solubility ([1]; aqueous medium, read-out: aqueous solubility): < 0.2 µg/mL
- solubility in Miglyol 812 ([1]; relative to a fully efficacious amount of solubilized compound in a 500 mg capsule): not sufficiently soluble
- Chemical stability ([2]; 1 mg Compound I/g vehicle, 1:1 Imwitor 742:Tween 80 +0.05% PG + 0.05% BHA, 1 wk): 102.2 % claim
- Chemical stability ([2]; 1 mg Compound I/g vehicle, 1:1 Imwitor 742:Tween 80 +0.05% PG + 0.05% BHA, 18 wk): 94.7 % claim
- Chemical stability ([2]; 1 mg Compound I/g vehicle, 1:1 Imwitor 742:Tween 80 +0.05% PG + 0.05% BHT, 1 wk): 99.4 % claim
- Chemical stability ([2]; 1 mg Compound I/g vehicle, 1:1 Imwitor 742:Tween 80 +0.05% PG + 0.05% BHT, 18 wk): 93.7 % claim
- Chemical stability ([2]; 1 mg Compound I/g vehicle, 1:1 Imwitor 742:Tween 80 +0.05% PG + 0.05% NaSO3, 1 wk): 98.5 % claim
- Chemical stability ([2]; 1 mg Compound I/g vehicle, 1:1 Imwitor 742:Tween 80 +0.1% Ascorbic Acid Palmitate, 1 wk): 94.2 % claim
- Chemical stability ([2]; 1 mg Compound I/g vehicle, 1:1 Imwitor 742:Tween 80 +0.1% Ascorbic Acid Palmitate, 4 wk): 89.4 % claim
- Chemical stability ([2]; 1 mg Compound I/g vehicle, 1:1 Imwitor 742:Tween 80 +0.1% BHA, 1 wk): 98.4 % claim
- Chemical stability ([2]; 1 mg Compound I/g vehicle, 1:1 Imwitor 742:Tween 80 +0.1% BHA, 4 wk): 96.1 % claim
- Chemical stability ([2]; 1 mg Compound I/g vehicle, 1:1 Imwitor 742:Tween 80 +0.1% Propyl Gallate, 1 wk): 99.6 % claim
- Chemical stability ([2]; 1 mg Compound I/g vehicle, 1:1 Imwitor 742:Tween 80 +0.1% Propyl Gallate, 4 wk): 97.7 % claim
- Chemical stability ([2]; 1 mg Compound I/g vehicle, 1:1 Imwitor 742:Tween 80 +0.1% Propyl Gallate, 18 wk): 93.1 % claim
- Chemical stability ([2]; 1 mg Compound I/g vehicle, 1:1 Imwitor 742:Tween 80 +0.1% α-tocopherol, 1 wk): 86.7 % claim
- Chemical stability ([2]; 1 mg Compound I/g vehicle, 1:1 Imwitor 742:Tween 80 +0.1% α-tocopherol, 4 wk): 71.1 % claim
- Chemical stability ([2]; 1 mg Compound I/g vehicle, 1:1 Imwitor 742:Tween 80, 1 wk): 95.2 % claim
- Chemical stability ([2]; 1 mg Compound I/g vehicle, 1:1 Imwitor 742:Tween 80, 4 wk): 90.4 % claim
- Chemical stability ([2]; 1 mg Compound I/g vehicle, 1:1 Imwitor 742:Tween 80, 5 wk): 83.8 % claim
- Chemical stability ([2]; 1 mg Compound I/g vehicle, 1:1 Imwitor 742:Tween 80, 18 wk): 73.7 % claim
- Chemical stability ([2]; 1 mg Compound I/g vehicle, 6:4 Imwitor 742:Propylene Glycol, 1 wk): 100.2 % claim
- Chemical stability ([2]; 1 mg Compound I/g vehicle, 6:4 Imwitor 742:Propylene Glycol, 2 wk): 100.6 % claim
- Chemical stability ([2]; 1 mg Compound I/g vehicle, 6:4 Imwitor 742:Propylene Glycol, 4 wk): 100.0 % claim
- Chemical stability ([2]; 1 mg Compound I/g vehicle, 6:4 Imwitor 742:Propylene Glycol, 8 wk): 100.6 % claim
- Chemical stability ([2]; 1 mg Compound I/g vehicle, 9:1 Imwitor 742:Tween 80, 1 wk): 99.6 % claim
- Chemical stability ([2]; 1 mg Compound I/g vehicle, 9:1 Imwitor 742:Tween 80, 9.5 wk): 96.4 % claim
- Chemical stability ([2]; 1 mg Compound I/g vehicle, Capmul MCM C8, 1 wk): 99.0 % claim
- Chemical stability ([2]; 1 mg Compound I/g vehicle, Capmul MCM C8, 32.5 wk): 78.1 % claim
- Chemical stability ([2]; 1 mg Compound I/g vehicle, Capmul PG-8, 1 wk): 99.7 % claim
- Chemical stability ([2]; 1 mg Compound I/g vehicle, Imwitor 742, 1 wk): 99.8 % claim
- Chemical stability ([2]; 1 mg Compound I/g vehicle, Imwitor 742, 5 wk): 98.8 % claim
- Chemical stability ([2]; 1 mg Compound I/g vehicle, Imwitor 742, 9.5 wk): 99.8 % claim
- Chemical stability ([2]; 1 mg Compound I/g vehicle, Imwitor 742, 32.5 wk): 97.0 % claim
- Chemical stability ([2]; at 10 mg/g, Imwitor 742 + 0.75 eq HCl, 1 wk): 100.6 % claim
- Chemical stability ([2]; at 10 mg/g, Imwitor 742:Tween 80 +0.75 eq Benzenesulfonic Acid (acid not completely dissolved), 1 wk): 99.1* % claim
- Chemical stability ([2]; at 10 mg/g, Imwitor 742:Tween 80 +0.75 eq HCl, 1 wk): 95.2 % claim
- Chemical stability ([2]; at 10 mg/g, Imwitor 742:Tween 80 +0.75 eq Phosphoric Acid, 1 wk): 96.4 % claim
- Chemical stability ([2]; at 10 mg/g, Imwitor 742:Tween 80 +0.75 eq Sulfuric Acid, 1 wk): 82.9 % claim
- Chemical stability ([2]; at 10 mg/g, PEG 400 + 0.75 eq HCl, 1 wk): 60.3 % claim
- Chemical stability ([2]; at 10 mg/g, Propylene Glycol + 0.75 eq HCl, 1 wk): 95.2 % claim
- Cmax [3, 4]: 4.06 ± 0.49 µM
- Tmax [3, 4]: 3.33 ± 1.03 h
- AUC(0-t) [3, 4]: 65.4 ± 14.7 µM·h
- Cmax [3, 5]: 3.04 ± 0.44 µM
- Tmax [3, 5]: 3.67 ± 0.82 h
- AUC(0-t) [3, 5]: 49 ± 11.5 µM·h
- Cmax [3, 6]: 4.22 ± 0.54 µM
- Tmax [3, 6]: 4.67 ± 1.63 h
- AUC(0-t) [3, 6]: 69 ± 14.2 µM·h

From US20100209496A1, “LIQUID AND SEMI-SOLID PHARMACEUTICAL FORMULATIONS FOR ORAL ADMINISTRATION OF A SUBSTITUTED AMIDE” (priority 2006, published 2010)
